According to ChEMBL document CHEMBL1154828, “Dimeric guaianolides and sesquiterpenoids from Artemisia anomala” (J Nat Prod, 2010):
Calls of active or inactive are those of the source. No cut-off for these calls is given here.

Experiments:
[1] = molecular target: T1, Prostaglandin G/H synthase 2 (Homo sapiens) (UniProt P35354); test: Inhibition of COX2 at 50 uM
T1 sequence (whole entry): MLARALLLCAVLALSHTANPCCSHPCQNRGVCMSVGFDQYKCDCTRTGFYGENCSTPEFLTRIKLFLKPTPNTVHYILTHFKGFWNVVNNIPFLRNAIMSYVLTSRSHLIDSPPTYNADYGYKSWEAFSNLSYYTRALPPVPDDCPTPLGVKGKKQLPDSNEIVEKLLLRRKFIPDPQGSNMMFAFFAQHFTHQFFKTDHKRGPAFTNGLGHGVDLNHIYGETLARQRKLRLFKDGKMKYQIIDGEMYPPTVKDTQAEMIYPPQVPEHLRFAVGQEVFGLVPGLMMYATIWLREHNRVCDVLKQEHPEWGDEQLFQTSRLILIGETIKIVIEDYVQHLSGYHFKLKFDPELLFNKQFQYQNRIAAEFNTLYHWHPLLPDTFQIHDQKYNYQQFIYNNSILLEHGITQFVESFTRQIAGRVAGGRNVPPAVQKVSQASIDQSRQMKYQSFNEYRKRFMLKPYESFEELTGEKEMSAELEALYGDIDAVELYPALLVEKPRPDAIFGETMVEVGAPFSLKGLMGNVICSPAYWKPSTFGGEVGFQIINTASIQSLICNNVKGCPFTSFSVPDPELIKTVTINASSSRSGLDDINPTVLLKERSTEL

Bel-7402 = test: Cytotoxicity activity against human Bel7402 cells after 72 hrs by MTT assay; assay type: functional, cell-based; settings: Bel-7402, 72 h
HCT-8 = test: Cytotoxicity activity against human HCT8 cells after 72 hrs by MTT assay; assay type: functional, cell-based; settings: HCT-8, 72 h
A549 = test: Cytotoxicity activity against human A549 cells after 72 hrs by MTT assay; assay type: functional, cell-based
BGC-823 = test: Cytotoxicity activity against human BGC823 cells after 72 hrs by MTT assay; assay type: functional, cell-based; settings: BGC-823, 72 h
A2780 = test: Cytotoxicity activity against human A2780 cells after 72 hrs by MTT assay; assay type: functional, cell-based; settings: A2780, 72 h

Row | inhibition [1] [%] | SMILES | IC50 (Bel-7402) [nM] | IC50 (HCT-8) [nM] | Activity (A549) | IC50 (BGC-823) [nM] | IC50 (A2780) [nM]
1 | 98.2 | C=C(C(=O)O)C(CCC(C)=O)CC1=C(C)C(=O)CC1=O (stereo not drawn) |  |  |  |  | 
2 | 98.4 | C=C1C(=O)O[C@H]2[C@H]1CC[C@](C)(O)[C@]13O[C@H]1[C@H](Cl)[C@](C)(O)[C@H]23 |  |  |  |  | 
3 | 99.5 | C=C1C(=O)O[C@@H]2[C@@H]3C4(C=C[C@@]3(C)C3(C4)C(=O)O[C@@H]4[C@H]5C(C)=CC(=O)C5=C(C)C[C@H](O)[C@H]43)[C@@](C)(OC(C)=O)CC[C@@H]12 (stereo partly drawn) [ARTANOMALIDE D] | 3000 | 1900 | inactive | 8500 | 1800
